For data set [1], the system named is histamine stimulated acid secretion, mouse gastric glands. Briefly: Histamine stimulated acid secretion (14C-aminopyrine accumulation) in isolated mouse gastric glands. The data set is classed as cell-based. Conditions: 100 μM, 60 min, 37° C. Here is the method: (§1) Acid secretion is measured indirectly by the accumulation of the weak base ^14 C-aminopyrine in the isolated murine gastric glands of mouse. The assay is performed in polypropylene eppendorf tubes containing 0.5 mL of resuspended mouse gastric glands. In addition, tubes contain the tested drug, acid secretagogues (e.g. histamine, di-butyryl cyclic AMP (cAMP), carbachol) and ^14 C-aminopyrine. Tubes are incubated for 60 min. at 37° C. and continuously rotated. The reaction is stopped by centrifugation of the gland suspension for five min. at 1500 g. Supernatant is aspirated leaving the pellet containing intact gastric glands. The pellet is washed extensively and digested overnight in 1 mL of Protosol (Amersham). After neutralisation with acetic acid and addition of scintillation fluid, the radioactivity is counted in a beta-counter (Beckman). The amount of radioactivity trapped in the pellet corresponds directly with the amount of acid being secreted. Each experimental point is done in triplicate. In each experiment, energy independent consumption was estimated with 0.1 mM of dinitrophenol and basal acid secretion in the absence of acid stimulants. These values were then subtracted from corresponding results in order to calculate basal or secretagogue stimulated acid secretion. […] Each experiment is repeated a number of times and all results are expressed as a % of the maximum stimulation.

Data set [2] relates to gastric acid secretion, mouse gastric glands. Briefly: In vitro inhibition of gastric acid secretion (14C-aminopyrine accumulation) in isolated mouse gastric glands, secretagogue not stated. The data set is classed as cell-based. Conditions: 1 h, 60 min, 37° C., read-out: ED50 (the source's name).
Data set [3] deals with cAMP stimulated acid secretion, mouse gastric glands. Briefly: cAMP stimulated acid secretion (14C-aminopyrine accumulation) in isolated mouse gastric glands. The data set is classed as cell-based. Conditions: 100 μM, 60 min, 37° C. Here is the method: as §1
Data set [4] is described as follows: Reaction with phenethyl mercaptan in methanol (chemical model of proton pump thiol reactivity). Conditions: for conversion to 2-mercaptobenzimidazole on reaction with phenethyl mercaptan / time after which reaction with phenethyl mercaptan is complete: methanol. The text has this: A useful in vitro model for obtaining an indication of the reactivity of thiadiazole compound towards the proton pump enzyme for deactivation thereof is provided by the reactivity of the thiadiazole compound towards phenethylmercaptan. The chemical mechanism of this process, as applied to the thiadiazolobenzimidazole compounds of the present invention, is diagrammatically illustrated on FIG. 3 of the accompanying drawings. The first stage of reaction forms a disulfide compound by cleavage of the S--N bond of the thiadiazole ring. This disulfide X cannot be isolated, since it reacts very rapidly with a second mercaptan group to give the disulfide of phenethylmercaptan and intermediate XI. In connection with the actual enzyme, the second step involving attack of another thiol group would not happen because of steric factors inhibiting the approach of two enzymes, or would lead to the formation of a disulfide bond in the event that another proximal thiol group is present. In both cases, this would lead to the inhibition of the enzyme. In some cases, intermediate XI further degrades to 2-mercaptobenzimidazole VIII or 1-cyano-2-mercaptobenzimidazole XII. A similar mechanism is followed by the imidazothiadiazoles of the present invention. Further description and discussion of this reaction and test method is included in the specific example section hereof.
To a solution of 23 mg of 3-(dimethylamino)-1,2,4-thiadiazolo[4,5-a]benzimidazole in 10 mL of methanol was added 360 μL of phenethyl mercaptan. After 1 min, the reaction is complete. The solvent was evaporated and the crude material was purified by chromatography to give 15 mg of N^1, N^1 -dimethyl-2-mercapto-1-benzimidazolylamidine: ^1 H NMR (DMSO-d6) δ 7.3-7.0 (m, 4H, 4×ArH), 3.35 (br s, 2H, NH, SH), 2.88 (s, 6H, 2×NCH3) ppm; IR (KBr) .nu. 3210, 1641, 1475, 1452, 1407, 1319 cm^-1; MS m/z 220 (M+), 150 (M^+ -Me2 NC=NH).
To a solution of 23 mg of 3-methoxy-1,2,4-thiadiazolo [4,5-a]benzimidazole in 10 mL of methanol was added 376 μL of phenethyl mercaptan. After 1 min, the reaction is complete. The methyl 2-mercapto-1-benzimidazolecarboximidate was identified as the major reaction product of the reaction: ^1 H NMR (DMSO-d6) δ 13.45 (br s, 1H, SH or NH), 9.8 (s, 1H, NH or SH), 7.7 (d, 1H, J=8 Hz, ArH), 7.35-7.2 (m, 3H, 3×ArH), 3.95 (s, 3H, OCH3) ppm; IR (KBr) .nu. 3437, 3095, 1679, 1450, 1440, 1376, 1193, 735 cm^-1; MS m/z=207 (M^+), 150 (M^+ -MeOC=NH)
To a suspension of 26 mg of 3-(oxophenylmethyl)-1,2,4-thiadiazolo[4,5-a]benzimidazole in 10 mL methanol was added 31 μL of phenethyl mercaptan.
To a suspension of 25 mg of 3-[hydroxy(4-methoxy-3,5-dimethyl-2-pyridyl)methyl]-1,2,4-thiadiazolo[4,5- a]benzimidazole in 10 mL methanol was added 250 μL of phenethyl mercaptan.
To a suspension of 31 mg of 3-[(4-methylphenyl) sulfonyl]-1,2,4-thiadiazolo[4,5-a]benzimidazole in 10 mL methanol was added 313 μL of phenethyl mercaptan.
Phenethyl mercaptan (120 μL, 0.90 mmol) was added to a suspension of 3-[(4-4-methoxy-3,5-dimethyl-2-pyridyl) oxomethyl]-1,2,4-thiadiazolo[4,5-a]benzimidazole (300 mg, 0.887 mmol) in methanol (150 ml) and 0.1 M hydrochloric acid (38 mL). After stirring the mixture at room temperature for 51 h, the mixture was neutralized to pH 6 with aqueous sodium bicarbonate and extracted with ethyl ether. The ether layer was dried on sodium sulfate and evaporated.

The nature of data set [5]: Reaction of 1,2,4-thiadiazolo[4,5-a]benzimidazole derivative with 2-mercaptoethanol, determination of t1/2 values. Conditions: compound 5×10^-3 M, 2-mercaptoethanol 1.15×10^-2 M, methanol, R.T., HPLC; 5000 µM. As to the method:
The column is eluted with 70% 50 mM ammonium acetate; 30% acetonitrile as the mobile phase.
Percentage reaction completion was calculated as follows:
At time 0, 100% starting material remained unreacted.
At time t, % of unreacted starting material={hsample /hint.std at
time t}/{hsample /hint.std at time O}*100%.

The nature of data set [6]: Acid stability in 6 molar hydrochloric acid. The data set is classed as physicochemical. Conditions: minimum methanol, room temperature.
Experimental: To examine acid stability of the captioned compound, the compound was dissolved in a minimum volume of methanol and the resulting solution was added to a 6 molar solution of hydrochloric acid.
The nature of a further data set: Solubility in water. The data set is classed as physicochemical.
In data set [7] the test system is gastric acid secretion. Nature of the data set: Suppression of gastric acid secretion in animal model. The data set is classed as in vivo.
In data set [8] the test system is gastric acid secretion. Nature of the data set: Histamine-stimulated gastric acid secretion in anesthetized rats (dose-dependent study). The data set is classed as in vivo, Sprague-Dawley rats. Conditions: rat, oral gavage, at 3, 30, 300 μmol/kg doses; histamine 5 mg/kg i.v. infusion 2 h. As to the method:
Fasted, adult (140-240 g), male, Sprague-Dawley rats were fasted for 24 h from food, but not water, and then treated by oral gavage with 1 to 1.5 mL total volume of 4 different doses (0.3, 3, 30, and 300 μmol/kg) of each compound on different days. Two hours later, rats were anesthetized with a combination of pentobartital and thiopental, the abdomen was opened and the pylorus was ligated, and tracheal, gastric, and peripheral venous canulas were placed. The stomachs were lavaged with 10 mL 0.9% saline every 10 min. for 30 min and the gastric effluent collected in receptacles. Acid output was determined in each gastric effluent sample by back-titration to pH 7.0 using 0.02M NaOH. Then, 5 mL of an 8% peptone meal (pH 5.5) was instilled into the stomachs, mixed, and drained after 10 min each time for 2 hours. Acid output was determined in each gastric effluent sample by back-titration to pH 7.0 using 0.02 M NaOH. After measuring basal acid output for at least 30 minutes, acid output was then measured during a 2 h intravenous infusion of histamine (5 mg/kg).

The test system of data set [9] is gastric acid secretion. Nature of the data set: Meal (8% peptone)-stimulated gastric acid secretion in rats. The data set is classed as in vivo, Sprague-Dawley rats. Conditions: rat, oral gavage, 300 μmol/kg. As to the method: Fasted, adult (140-240 g), male, Sprague-Dawley rats were fasted for 24 h from food, but not water, and then treated by oral gavage with 1 to 1.5 mL total volume of compound of Formula I (300 μmmol/Kg) on different days. Two hours later, rats were anesthetized with a combination of pentobartital and thiopental, the abdomen was opened and the pylorus was ligated, and tracheal, gastric, and peripheral venous canulas were placed. The stomachs were lavaged with 10 mL 0.9% saline every 10 min. for 30 min and the gastric effluent collected in receptacles to determine the basal acid secretion. Acid output was determined in each gastric effluent sample by back-titration to pH 7.0 using 0.02M NaOH. Then, 5 mL of an 8% peptone meal (pH 5.5) was instilled into the stomachs, mixed, and drained after 10 min each time for 2 hours. Acid output was determined in each gastric effluent containing the peptone meal by back-titration to pH 5.5 using 0.02 M NaOH.

The results in this text go back to patent US6093738A, “Proton pump inhibitors” (priority 1997, dated 2000).

For `CN1CCN(c2nsc3nc4ccccc4n23)CC1.Cl.Cl` [3-(4-methyl-1-piperazinyl)-1,2,4-thiadiazolo[4,5-a]benzimidazole dihydrochloride], in [1], the “inhibition of histamine stimulated acid secretion” value is recorded as “completely inhibited”. Moreover, the IC50 in [2] amounted to 50 µM. In data set [3], the “inhibition of cAMP stimulated acid secretion” value is listed as “completely inhibited”.

Turning to `O=C(c1ccccc1)c1nsc2nc3ccccc3n12` [3-(oxophenylmethyl)-1,2,4-thiadiazolo[4,5-a]benzimidazole], the “conversion to 2-mercaptobenzimidazole on reaction with phenethyl mercaptan” value (from here on “conversion to 2-mercaptobenzimidazole”) in [4] is listed as “complete conversion”.

Consider `COc1c(C)cnc(C(=O)c2nsc3nc4ccccc4n23)c1C` [3-[(4-methoxy-3,5-dimethyl-2-pyridyl)oxomethyl]-1,2,4-thiadiazolo[4,5-a]benzimidazole], for which, in data set [4] (methanol and 0.1 M hydrochloric acid, room temperature, 51 h), the “recovered starting material after reaction with phenethyl mercaptan” value is 14.6%.

Consider `Cc1ccc(S(=O)(=O)c2nsc3nc4ccccc4n23)cc1` [3-[(4-methylphenyl)sulfonyl]-1,2,4-thiadiazolo[4,5-a]benzimidazole], for which, in data set [4], the “conversion to 2-mercaptobenzimidazole” value is given as “complete conversion”.

Consider `COc1c(C)cnc(C(O)c2nsc3nc4ccccc4n23)c1C` (stereo not shown) [3-[hydroxy(4-methoxy-3,5-dimethyl-2-pyridyl)methyl]-1,2,4-thiadiazolo[4,5-a]benzimidazole], for which, in data set [4], the “conversion to 2-mercaptobenzimidazole” value was “complete conversion”.

With `CN1CCN(c2nsc3nc4ccccc4n23)CC1` [4-methylpiperazinyl, 3-(4-methyl-1-piperazinyl)-1,2,4-thiadiazolo-[4,5-a]benzimidazole], the “t1/2 at pH = 7.0” value in data set [5] was found to be 6.7 h.

Regarding `COc1ccc2c(c1)nc1snc(C(=O)c3ncc(C)c(OC)c3C)n12` [7-methoxy-3-[(4-methoxy-3,5-dimethyl-2-pyridyl)oxomethyl]-1,2,4-thiadiazolo[4,5-a]benzimidazole], in data set [6], the acid stability result is “very stable in acid and was totally recovered after stirring for 48 hours at room temperature”. In “Solubility in water”, the solubility in water result was “limited solubility in water”. In addition, the “suppression of gastric acid secretion” value in the data set with gastric acid secretion [7] is on record as “active in the suppression of gastric acid secretion”. In the data set on gastric acid secretion [8], the “inhibition of histamine-stimulated acid secretion” value is “significant (p<0.05) inhibition”. Further, in the data set on gastric acid secretion [9], the “inhibition of meal-stimulated acid secretion” value is recorded as “significant (p<0.05) inhibition”. In the data set with gastric acid secretion [9] (8% peptone stimulated, after 1 h), the “acid output after 1 h” value came to 20 μmmol/30 min.

On to `c1ccc(-c2nsc3nc4ccccc4n23)nc1` [Example 2-pyridyl, 3-(2-pyridyl)-1,2,4-thiadiazolo[4,5-a]benzimidazole], for which the “t1/2 at pH = 7.0” value in [5] is given as 134 h.

With `CN(C)c1nsc2nc3ccccc3n12` [Me2 N, 3-(dimethylamino)-1,2,4-thiadiazolo[4,5-a]benzimidazole], in data set [5], the “t1/2 at pH = 7.0” value is 1.5 h. Moreover, in data set [4], the “time after which reaction with phenethyl mercaptan is complete” value was not above 1 min.

As for `COc1nsc2nc3ccccc3n12` [MeO, 3-methoxy-1,2,4-thiadiazolo[4,5-a]benzimidazole], in data set [5], the “t1/2 at pH = 7.0” value is 0.31 h. Moreover, in data set [4], the “time after which reaction with phenethyl mercaptan is complete” value is recorded as not above 1 min.

Regarding `COc1ccc2[nH]c([S+]([O-])Cc3ncc(C)c(OC)c3C)nc2c1` (stereo not shown) [Omeprazole, reference compound], in data set [6], the acid stability result is “complete decomposition in a few minutes”.

As to `CC(=O)c1nsc2nc3ccccc3n12` [acetyl, 3-(1-oxoethyl)-1,2,4-thiadiazolo[4,5-a]benzimidazole], in data set [5], the “t1/2 at pH = 7.0” value is recorded as 110 h.

For `Cc1nsc2nc3ccccc3n12` [methyl, 3-methyl-1,2,4-thiadiazolo[4,5-a]benzimidazole], the “t1/2 at pH = 7.0” value in [5] is 59 h.

In the case of `c1ccc2c(c1)nc1snc(N3CCOCC3)n12` [morpholino, 3-(4-morpholinyl)-1,2,4-thiadiazolo[4,5-a]benzimidazole], the “t1/2 at pH = 7.0” value in data set [5] stood at 2.4 h.

On to `c1ccc2c(c1)nc1snc(CN3CCOCC3)n12` [morpholinomethyl, 3-(morpholinomethyl)-1,2,4-thiadiazolo[4,5-a]benzimidazole], for which, in data set [5], the “t1/2 at pH = 7.0” value was found to be 98 h.

For the compound `c1ccc(-c2nsc3nc4ccccc4n23)cc1` [phenyl], the “t1/2 at pH = 7.0” value in [5] is listed as 45 h.
